Reference: patent US12502374B2, “Composition for preventing, alleviating, or treating inflammatory disease containing isookanin or salt thereof as active ingredient” (BioSpectrum, Inc., priority 2020, dated 2025)

How the values were obtained:
HMEC-1 [1] = assay: PGE2-induced vascular endothelial cell migration (scratch assay); assay type: cell-based, human; details: 20 μM, 24 hours; compared with 100 ng/ml VEGF
Procedure: Human vascular endothelial cells (HMEC-1) were seeded in a 12-well plate at a density of 2×10^5 cells per well and cultured in an incubator for 24 hours at 37° C. under 5% CO2. After the cells in each well were grown to 80% confluency, the central part of each well was scratched using a yellow pipette tip. Next, each well was pretreated with each concentration of isookanin for 2 hours and then treated with 20 μM PGE2 and incubated for 24 hours. As a negative control, 100 ng/ml of VEGF was used. After 24 hours of incubation, the degree of vascular cell migration was observed using a microscope, and the results were photographed with a microscope camera and shown in FIG. 9.

HMEC-1 [2] = assay: PGE2-induced vascular endothelial cell tube formation on Matrigel; assay type: cell-based, human; details: 20 μM, 24 hours; compared with 100 ng/ml VEGF
Procedure: Human vascular endothelial cells (HMEC-1) were seeded in a Matrigel-coated 24-well plate at a density of 1.2×10^5 cells per well, and each well was pretreated with 10 ppm of isookanin for 2 hours. Next, each well was treated with PGE2 at a concentration of 20 μM and incubated for 24 hours. As a negative control, 100 ng/ml of VEGF was used. After 24 hours of incubation, the degree of vascular cell tube formation was observed using a microscope, and the results were photographed with a microscope camera and analyzed with Image J, and are shown in FIGS. 10 and 11.

human skin [3] = assay: Human skin safety, repeated insult patch test (Finn chamber); assay type: in vivo; details: 30 healthy adults; 10th patch test; dash = no subject
human skin [4] = assay: as above; assay type: in vivo; details: 30 healthy adults
Procedure: In order to confirm that the isookanin according to the present invention is safe for human skin, a skin safety verification test was performed. To this end, a repeated insult patch test was conducted.
Nourishing creams containing the isookanin in amounts of 0.1%, 0.5% and 1%, respectively, were prepared. Specifically, a water phase containing purified water, triethanolamine and propylene glycol was dissolved by heating to 70° C. and then emulsified by adding a solution obtained by dissolving beeswax, liquid paraffin, an oil component, an emulsifier and a preservative by heating to 70° C. After completion of emulsification, the solution was cooled to 45° C., and the isookanin was added thereto in amounts of 0.1%, 0.5% and 1% and dispersed therein, followed by cooling to 30° C. As the content of the isookanin was increased from 0.1% to 0.5% and 1%, the content of liquid paraffin was decreased from 9.91% to 9.51% and 9.01%, respectively, thereby preparing nourishing creams.
Using the nourishing creams prepared as described above, a repeated insult patch test was conducted on the upper arm areas of 30 healthy adults every other day for a total of 9 times for 24 hours per time to determine whether the isookanin irritated the skin.
The patch test was performed using a Finn chamber (Epitest Ltd., Finland). 15 μl of each of the external skin preparations was dropped into the chamber, and then the patch test was performed.
[Equation 1] Average degree of reaction=[[(reaction index×degree of reaction)/(total number of subjects×highest score (4)]×100]÷number of tests (9)
In the degree of reaction, ± represents a score of 1, + represents a score of 2, and ++ represents a score of 4. When the average degree of reaction is less than 3, the corresponding composition is determined to be safe.

Row | Compound | effect on vascular endothelial cell migration (HMEC-1 [1]) | effect on vascular cell tube formation (HMEC-1 [2]) | Number of subjects showing reaction (±, +, ++), 10th (human skin [3]) | Average degree of reaction (human skin [4]; upper arm, 24 hours per patch, Equation 1, less than 3 is determined to be safe) | Number of subjects showing reaction (±, +, ++), 1st (human skin [4]; 1st patch test, dash = no subject) | Number of subjects showing reaction (±, +, ++), 2nd (human skin [4]; 2nd patch test, dash = no subject) | Number of subjects showing reaction (±, +, ++), 5th (human skin [4]; 5th patch test, dash = no subject) | Number of subjects showing reaction (±, +, ++), 6th (human skin [4]; 6th patch test, dash = no subject) | Number of subjects showing reaction (±, +, ++), 7th (human skin [4]; 7th patch test, dash = no subject) | Number of subjects showing reaction (±, +, ++), 8th (human skin [4]; 8th patch test, dash = no subject) | Number of subjects showing reaction (±, +, ++), column between 3rd and 5th (human skin [4]; dash = no subject)
1 | CCCCC[C@H](O)/C=C/[C@H]1[C@H](O)CC(=O)[C@@H]1C/C=C\CCCC(=O)O [PGE2, reference compound] | promoted vascular endothelial cell migration, similar to VEGF | promoted vascular cell tube formation, similar to VEGF |  |  |  |  |  |  |  |  | 
2 | CC(C)=CCC/C(C)=C/CC/C(C)=C/CC/C=C(\C)CC/C=C(\C)CCC=C(C)C [squalene] |  |  | - - - | 0.09 | - - - | - - - | - - - | - - | - - - | - - - | - - -
